# Where “and” joins values, the source holds several entries; their conditions need not be identical. Equal values may be shown once.
# Assays:
# [1] = system: pain following cataract surgery; test: Clinical study after cataract surgery: Grade 0 pain; type: in vivo, human
# Source text: (§1) There were 8 treatment groups in this study, consisting of three drug doses, vehicle and three dosing frequencies (see also Table 4-1): • Group A: 1% BOL-303242-X ophthalmic suspension, two times per day (BID) • Group B: 2% BOL-303242-X ophthalmic suspension, one time per day (QD) • Group C: 2% BOL-303242-X ophthalmic suspension, BID • Group D: 2% BOL-303242-X ophthalmic suspension, four times per day (QID) • Group E: 3% BOL-303242-X ophthalmic suspension, QD • Group F: 3% BOL-303242-X ophthalmic suspension, BID • Group G: 3% BOL-303242-X ophthalmic suspension, QID • Group H: Vehicle for BOL-303242-X (divided equally into QID, BID, and QD)
# Subjects self-administered study drug, instilling 1 to 2 drops of study drug into the study eye: QID at approximately 4 hour intervals, BID at approximately 12 hour intervals, or QD once in the morning, for 14 days. The initial dose occurred in the clinic at Visit 3 and the final dose was on the day before Visit 6 (postoperative Day 15±1 day). Subjects were examined and evaluated according to the following schedule:
# (§2) Visit 1 (screening), Visit 2 (cataract surgery), Visit 3 (postoperative Day 1), Visit 4 (postoperative Day 3±1 day), Visit 5 (postoperative Day 8±1 day), Visit 6 (postoperative Day 15±1 day), Visit 7 (postoperative Day 18±1 day). Subject assessments included adverse events (AEs), concomitant medications, ocular symptoms, pinholed Snellen visual acuity (VA), intraocular pressure (IOP), ocular signs (biomicroscopy), fundoscopy, and study drug drop sensation. In addition, subject diaries were collected and reviewed for accuracy and treatment compliance.
# Secondary Efficacy: The secondary efficacy endpoints for this study were the proportions of subjects with Grade 0 pain at Visit 5 (postoperative Day 8) and at each visit, complete resolution of AC cells at each visit, complete resolution of AC cells and flare at each visit, complete resolution of AC flare at each visit, change from baseline to each follow-up visit in AC cells and AC flare combined and separately, ocular symptoms.
# [2] = system: intraocular pressure (IOP); test: Clinical study after cataract surgery: intraocular pressure (safety); type: in vivo, human
# Source text: as §1, §2
# Safety: The safety endpoints in this study were: incidence of AEs, change in IOP, ocular signs (biomicroscopy), Snellen VA, fundoscopy, study drug drop sensation assessment.
# [3] = system: anterior-segment inflammation after anterior chamber paracentesis; test: Rabbit paracentesis model, overall anti-inflammatory activity; type: in vivo, Rabbit (New Zealand)
# [4] = system: protein concentration in the aqueous humor; test: Protein measurement in aqueous humor, rabbit paracentesis model; type: in vivo, Rabbit (New Zealand); settings: for Protein level in aqueous humor, Mean: group mean
# Description: (§3) Each rabbit was placed in a restraint device and tagged with the alphanumeric code. The formulations were instilled (50 μl) into the conjunctival sac of both eyes 180, 120, 90 and 30 min before the first paracentesis; then 15, 30, 90 min after the first paracentesis. To perform the first paracentesis the animals were anaesthetized by intravenous injection of 5 mg/kg Zoletil® (Virbac; 2.5 mg/kg tiletamine HCl and 2.5 mg/kg zolazepam HCl) and one drop of local anesthetic (Novesina®, Novartis) was administered to the eye. Anterior chamber paracentesis was performed with a 26 G needle attached to a tuberculin syringe; the needle was introduced into the anterior chamber through the cornea, taking care not to damage the tissues. Two hours after the first paracentesis, the animals were sacrificed with 0.4 ml Tanax® (Intervet International B.V.) and the second paracentesis was performed. About 100 μl of aqueous humor were removed at the second paracentesis. Aqueous humor was immediately split in four aliquots and stored at −80° C. until analysis. Then both eyes were enucleated and the iris-ciliary body was carefully excised, placed in polypropylene tubes, and stored at −80° C. until analysis.
# For protein concentration determination in the aqueous humor we used the Protein Quantification Kit (Fluka; Cat. No. 77371; Lot. No. 1303129). Five microliters of aqueous humor were diluted to 100 μl with water. Twenty microliters of samples and of standards were load into a 96-well plate and recorded in a plate layout. Samples were treated following the assay procedure described in the kit. A microplate reader (GDV, Italy; model DV 990 B/V6) set at 670 nm was used for making the calibration and analyzing the samples.
# (§4) Pupillary diameter, PGE2, protein, PMN, and MPO were expressed as mean±SEM. Statistical analysis was performed using one way ANOVA followed by a Newman-Keuls post hoc test. Clinical score was expressed as % of eyes and the statistical analysis was performed using Kruskal-Wallis followed by a Dunn post hoc test. P<0.05 was considered statistically significant in both cases. Prism 4 software (GraphPad Software, Inc.) was used for the analysis and graphs.
# [5] = system: MPO activity in iris-ciliary body; test: Myeloperoxidase (MPO) activity in iris-ciliary body, rabbit paracentesis model; type: in vivo, Rabbit (New Zealand); settings: for MPO activity in iris-ciliary body: individual samples collected after the second paracentesis, listed as BOL; for MPO activity in iris-ciliary body, Mean: after the second paracentesis, group mean
# Description: as §3
# The activity of MPO was measured as previously described by Williams et al.[5] The iris-ciliary bodies were carefully dried, weighed and immersed in 1 ml of hexa-decyl-trimethyl-ammonium bromide solution. Then, the samples were sonicated for 10 sec on ice by a ultrasound homogenizer (HD 2070, Bandelin electronic), freeze-thawed three times, sonicated for 10 sec and centrifuged at 14,000 g for 10 min to remove cellular debris. An aliquot of the supernatant (40-200 μl) was diluted to 3 ml with the o-dianisidine 2HCl/H2O2 solution. The change in absorbance at 460 nm was continuously monitored for 5 min by a spectrophotometer (UV/Vis Spectrometer Lambda EZ 201; Perkin Elmer). The slope of the line (Δ/min) was determined for each sample and used to calculate the number of units of MPO in the tissue as follows:
# Values were expressed as units of MPO/g of tissue.
# as §4
# pupillary diameter = test: Pupillary diameter measurement, rabbit paracentesis model; type: in vivo, Rabbit (New Zealand); settings: for Pupillary diameter T2: −5 min: 5 min before the first paracentesis; for Pupillary diameter T2: −5 min / Pupillary diameter T3: +115 min / Pupillary diameter T1: −180 min: raw data per eye, listed as BOL; for Pupillary diameter T3: +115 min: 5 min before the second paracentesis; for Pupillary diameter T1: −180 min: basal; for Mean (mm) Δ(T3 − T1) of pupillary diameter: group mean, n=8 eyes
smiles,measurement,setting,value
"Cc1ccc2c(NC[C@](O)(CC(C)(C)c3cc(F)cc4c3OCC4)C(F)(F)F)cccc2n1 [BOL-303242-X, mapracorat]",proportion of subjects with Grade 0 pain,"[1]; 2% QID, Visit 5 (postoperative Day 8), vehicle 50.0%",78.3%
same,proportion of subjects with Grade 0 pain,"[1]; 3% BID, Visit 7 (postoperative Day 18), vehicle 31.7%",63.3%
same,proportion of subjects with Grade 0 pain,"[1]; 3% QID, Visit 7 (postoperative Day 18), vehicle 31.7%",58.3%
same,mean IOP values among dose groups,"[2]; 2% QID and 3% QD groups, Visit 4 (postoperative Day 3) to Visit 7 (postoperative Day 18)",lowest mean TOP values
same,"proportion of subjects with mean IOP changes from baseline of ≧5 mmHg or ≧10 mmHg, compared to vehicle",[2]; any dose groups at any study visits,no statistically significant differences
same,Activity in the rabbit paracentesis model,"[3]; 0.1%, 0.5% and 1% topical formulations, preliminary conclusion",active in this model
same,Anti-inflammatory effectiveness compared with steroid and NSAID positive controls,[3]; rabbit paracentesis model,as effective an anti-inflammatory drug as some of the commonly accepted prior-art steroids or NSAID
same,"Protein level in aqueous humor, Mean","[4]; 0.1% formulation, second paracentesis",33.667 mg/mL
same,"Protein in aqueous humor, statistical significance vs CTR","[4]; 0.5% formulation, p<0.05",statistical significance
same,"Protein level in aqueous humor, Mean","[4]; 0.5% formulation, second paracentesis",28.844 mg/mL
same,"Protein level in aqueous humor, raw data","[4]; 0.5% formulation, second paracentesis, per eye, listed as BOL",33.98 mg/mL and 33.65 mg/mL and 19.99 mg/mL and 27.11 mg/mL and 19.72 mg/mL and 36.35 mg/mL and 27.71 mg/mL and 32.24 mg/mL
same,"Protein in aqueous humor, statistical significance vs CTR","[4]; 1% formulation, p<0.001",statistical significance
same,"Protein level in aqueous humor, Mean","[4]; 1% formulation, second paracentesis",21.435 mg/mL
same,MPO activity in iris-ciliary body,[5]; 0.1% BOL,1.04 Unit/g and 1.14 Unit/g and 1.06 Unit/g and 1.22 Unit/g and 1.05 Unit/g
same,"MPO activity in iris-ciliary body, Mean",[5]; 0.1% formulation,0.971 MPO Unit/g
same,MPO activity in iris-ciliary body,[5]; 0.5% BOL,1.03 Unit/g
same,"MPO activity in iris-ciliary body, Mean",[5]; 0.5% formulation,0.775 MPO Unit/g
same,MPO activity in iris-ciliary body,[5]; 1% BOL,1.02 Unit/g
same,"MPO activity in iris-ciliary body, Mean",[5]; 1% formulation,0.542 MPO Unit/g
same,Pupillary diameter T2: −5 min,pupillary diameter; 0.1% formulation,6.5 mm and 7.0 mm and 7.5 mm
same,Pupillary diameter T3: +115 min,pupillary diameter; 0.1% formulation,5.0 mm and 6.0 mm and 6.5 mm and 5.5 mm
same,Pupillary diameter T1: −180 min,pupillary diameter; 0.1% formulation,6.5 mm and 7.0 mm and 7.5 mm
same,Mean (mm) Δ(T3 − T1) of pupillary diameter,pupillary diameter; 0.1% formulation,−1.1 mm
same,Pupillary diameter T2: −5 min,pupillary diameter; 0.5% formulation,8.0 mm and 7.0 mm and 7.5 mm
same,Pupillary diameter T3: +115 min,pupillary diameter; 0.5% formulation,6.5 mm and 6.0 mm and 7.0 mm
same,Pupillary diameter T1: −180 min,pupillary diameter; 0.5% formulation,8.0 mm and 7.0 mm and 7.5 mm
same,Mean (mm) Δ(T3 − T1) of pupillary diameter,pupillary diameter; 0.5% formulation,−1.0 mm
same,Pupillary diameter T2: −5 min,pupillary diameter; 1% formulation,6.0 mm and 6.5 mm and 7.0 mm
same,Pupillary diameter T3: +115 min,pupillary diameter; 1% formulation,5.5 mm and 5.0 mm and 6.0 mm
same,Pupillary diameter T1: −180 min,pupillary diameter; 1% formulation,6.0 mm and 6.5 mm
same,Mean (mm) Δ(T3 − T1) of pupillary diameter,pupillary diameter; 1% formulation,−0.9 mm
